Experiments:
Test in all cases: biochemical
Conditions in all cases: read-out: %Ctrl @ 1000nM
MST4 = target: T1, MST4 (Homo sapiens, UniProt Q9P289)
T1 construct: gene STK26

[1] = target: ABL1(H396P)-nonphosphorylated (Homo sapiens, UniProt P00519, H396P)
CSF1R = CSF1R (Homo sapiens, UniProt P07333)
PFTK1 = target: T2, PFTK1 (Homo sapiens, UniProt O94921)
T2 construct: gene CDK14

HPK1 = target: T3, HPK1 (Homo sapiens, UniProt Q92918)
T3 construct: gene MAP4K1

ALK = ALK (Homo sapiens, UniProt Q9UM73)
PIP5K2C = target: T4, PIP5K2C (Homo sapiens, UniProt Q8TBX8)
T4 construct: gene PIP4K2C

PLK3 = PLK3 (Homo sapiens, UniProt Q9H4B4)
TGFBR1 = TGFBR1 (Homo sapiens, UniProt P36897)
HIPK4 = HIPK4 (Homo sapiens, UniProt Q8NE63)
SgK110 = target: T5, SgK110 (Homo sapiens, UniProt P0C264)
T5 construct: gene SBK3

MYLK4 = MYLK4 (Homo sapiens, UniProt Q86YV6)
PRKD1 = PRKD1 (Homo sapiens, UniProt Q15139)
CDKL5 = CDKL5 (Homo sapiens, UniProt O76039)
DCAMKL2 = target: T6, DCAMKL2 (Homo sapiens, UniProt Q8N568)
T6 construct: gene DCLK2

CLK2 = CLK2 (Homo sapiens, UniProt P49760)
CAMKK2 = CAMKK2 (Homo sapiens, UniProt Q96RR4)
KIT(A829P) = KIT(A829P) (Homo sapiens, UniProt P10721, A829P)
[2] = target: EGFR(L747-E749del, A750P) (Homo sapiens, UniProt P00533, A750P/DEL747-749)
GRK2 = GRK2 (Homo sapiens, UniProt P25098)
DCAMKL1 = target: T7, DCAMKL1 (Homo sapiens, UniProt O15075)
T7 construct: gene DCLK1

CSNK2A1 = CSNK2A1 (Homo sapiens, UniProt P68400)
PIK3CA(I800L) = PIK3CA(I800L) (Homo sapiens, UniProt P42336, I800L)
MEK3 = target: T8, MEK3 (Homo sapiens, UniProt P46734)
T8 construct: gene MAP2K3

LRRK2(G2019S) = LRRK2(G2019S) (Homo sapiens, UniProt Q5S007, G2019S)
KIT(D816H) = KIT(D816H) (Homo sapiens, UniProt P10721, D816H)
STK39 = STK39 (Homo sapiens, UniProt Q9UEW8)
MET = MET (Homo sapiens, UniProt P08581)
BRAF(V600E) = BRAF(V600E) (Homo sapiens, UniProt P15056, V600E)
MUSK = MUSK (Homo sapiens, UniProt O15146)
CDK7 = CDK7 (Homo sapiens, UniProt P50613)
INSRR = INSRR (Homo sapiens, UniProt P14616)
PRP4 = target: T9, PRP4 (Homo sapiens, UniProt Q13523)
T9 construct: gene PRPF4B

NEK5 = NEK5 (Homo sapiens, UniProt Q6P3R8)

Chain of TGFBR1 (P36897 whole entry): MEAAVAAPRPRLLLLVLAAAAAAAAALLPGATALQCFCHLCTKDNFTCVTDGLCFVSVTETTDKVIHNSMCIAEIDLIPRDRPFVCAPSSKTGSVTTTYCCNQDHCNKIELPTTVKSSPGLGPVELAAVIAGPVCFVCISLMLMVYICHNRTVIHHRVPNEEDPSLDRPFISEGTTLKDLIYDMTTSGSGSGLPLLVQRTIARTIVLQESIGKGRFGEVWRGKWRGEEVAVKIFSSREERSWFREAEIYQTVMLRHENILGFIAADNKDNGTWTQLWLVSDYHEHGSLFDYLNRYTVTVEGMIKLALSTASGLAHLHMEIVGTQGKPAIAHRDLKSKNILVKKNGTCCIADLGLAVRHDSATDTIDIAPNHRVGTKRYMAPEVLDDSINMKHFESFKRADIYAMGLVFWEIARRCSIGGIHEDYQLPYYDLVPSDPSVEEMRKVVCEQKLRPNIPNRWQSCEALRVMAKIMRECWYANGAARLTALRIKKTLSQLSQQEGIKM
Chain of MET (P08581 whole entry): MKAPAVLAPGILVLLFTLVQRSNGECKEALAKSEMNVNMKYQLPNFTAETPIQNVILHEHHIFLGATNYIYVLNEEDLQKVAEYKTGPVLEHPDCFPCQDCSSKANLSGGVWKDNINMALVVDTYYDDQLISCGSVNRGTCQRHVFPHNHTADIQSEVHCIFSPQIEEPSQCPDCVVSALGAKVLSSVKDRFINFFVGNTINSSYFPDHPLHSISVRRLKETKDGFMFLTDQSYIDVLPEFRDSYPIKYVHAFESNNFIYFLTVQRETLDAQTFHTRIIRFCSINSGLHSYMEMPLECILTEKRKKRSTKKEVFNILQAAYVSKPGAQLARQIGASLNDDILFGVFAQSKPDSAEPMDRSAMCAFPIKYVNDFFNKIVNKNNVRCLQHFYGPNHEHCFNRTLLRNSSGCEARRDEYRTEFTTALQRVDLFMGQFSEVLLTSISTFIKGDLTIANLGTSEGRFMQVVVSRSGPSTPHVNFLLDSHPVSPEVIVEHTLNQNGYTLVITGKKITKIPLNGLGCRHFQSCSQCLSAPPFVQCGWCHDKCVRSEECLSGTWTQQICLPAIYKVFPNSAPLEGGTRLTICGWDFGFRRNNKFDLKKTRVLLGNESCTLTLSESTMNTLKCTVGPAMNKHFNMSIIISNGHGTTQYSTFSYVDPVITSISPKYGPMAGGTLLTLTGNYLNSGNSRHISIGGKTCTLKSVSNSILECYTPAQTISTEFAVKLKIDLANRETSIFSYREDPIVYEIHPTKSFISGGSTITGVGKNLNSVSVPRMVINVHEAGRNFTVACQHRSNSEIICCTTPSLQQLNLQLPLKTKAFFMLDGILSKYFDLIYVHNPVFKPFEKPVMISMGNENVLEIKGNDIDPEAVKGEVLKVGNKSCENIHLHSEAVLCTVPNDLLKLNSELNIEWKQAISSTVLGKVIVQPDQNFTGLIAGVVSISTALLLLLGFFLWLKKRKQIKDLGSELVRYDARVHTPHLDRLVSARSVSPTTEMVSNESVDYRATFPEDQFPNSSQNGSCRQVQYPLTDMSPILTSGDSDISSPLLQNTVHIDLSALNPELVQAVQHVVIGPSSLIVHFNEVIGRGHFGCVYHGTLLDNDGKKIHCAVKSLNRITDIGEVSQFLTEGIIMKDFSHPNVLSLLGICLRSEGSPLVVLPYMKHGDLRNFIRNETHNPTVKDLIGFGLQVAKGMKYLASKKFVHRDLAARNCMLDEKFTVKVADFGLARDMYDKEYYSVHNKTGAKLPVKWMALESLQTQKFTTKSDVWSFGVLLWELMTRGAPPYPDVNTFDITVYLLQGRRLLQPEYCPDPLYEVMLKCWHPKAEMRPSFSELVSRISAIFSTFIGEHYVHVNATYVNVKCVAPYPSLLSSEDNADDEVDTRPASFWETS
Chain of ALK (Q9UM73 whole entry): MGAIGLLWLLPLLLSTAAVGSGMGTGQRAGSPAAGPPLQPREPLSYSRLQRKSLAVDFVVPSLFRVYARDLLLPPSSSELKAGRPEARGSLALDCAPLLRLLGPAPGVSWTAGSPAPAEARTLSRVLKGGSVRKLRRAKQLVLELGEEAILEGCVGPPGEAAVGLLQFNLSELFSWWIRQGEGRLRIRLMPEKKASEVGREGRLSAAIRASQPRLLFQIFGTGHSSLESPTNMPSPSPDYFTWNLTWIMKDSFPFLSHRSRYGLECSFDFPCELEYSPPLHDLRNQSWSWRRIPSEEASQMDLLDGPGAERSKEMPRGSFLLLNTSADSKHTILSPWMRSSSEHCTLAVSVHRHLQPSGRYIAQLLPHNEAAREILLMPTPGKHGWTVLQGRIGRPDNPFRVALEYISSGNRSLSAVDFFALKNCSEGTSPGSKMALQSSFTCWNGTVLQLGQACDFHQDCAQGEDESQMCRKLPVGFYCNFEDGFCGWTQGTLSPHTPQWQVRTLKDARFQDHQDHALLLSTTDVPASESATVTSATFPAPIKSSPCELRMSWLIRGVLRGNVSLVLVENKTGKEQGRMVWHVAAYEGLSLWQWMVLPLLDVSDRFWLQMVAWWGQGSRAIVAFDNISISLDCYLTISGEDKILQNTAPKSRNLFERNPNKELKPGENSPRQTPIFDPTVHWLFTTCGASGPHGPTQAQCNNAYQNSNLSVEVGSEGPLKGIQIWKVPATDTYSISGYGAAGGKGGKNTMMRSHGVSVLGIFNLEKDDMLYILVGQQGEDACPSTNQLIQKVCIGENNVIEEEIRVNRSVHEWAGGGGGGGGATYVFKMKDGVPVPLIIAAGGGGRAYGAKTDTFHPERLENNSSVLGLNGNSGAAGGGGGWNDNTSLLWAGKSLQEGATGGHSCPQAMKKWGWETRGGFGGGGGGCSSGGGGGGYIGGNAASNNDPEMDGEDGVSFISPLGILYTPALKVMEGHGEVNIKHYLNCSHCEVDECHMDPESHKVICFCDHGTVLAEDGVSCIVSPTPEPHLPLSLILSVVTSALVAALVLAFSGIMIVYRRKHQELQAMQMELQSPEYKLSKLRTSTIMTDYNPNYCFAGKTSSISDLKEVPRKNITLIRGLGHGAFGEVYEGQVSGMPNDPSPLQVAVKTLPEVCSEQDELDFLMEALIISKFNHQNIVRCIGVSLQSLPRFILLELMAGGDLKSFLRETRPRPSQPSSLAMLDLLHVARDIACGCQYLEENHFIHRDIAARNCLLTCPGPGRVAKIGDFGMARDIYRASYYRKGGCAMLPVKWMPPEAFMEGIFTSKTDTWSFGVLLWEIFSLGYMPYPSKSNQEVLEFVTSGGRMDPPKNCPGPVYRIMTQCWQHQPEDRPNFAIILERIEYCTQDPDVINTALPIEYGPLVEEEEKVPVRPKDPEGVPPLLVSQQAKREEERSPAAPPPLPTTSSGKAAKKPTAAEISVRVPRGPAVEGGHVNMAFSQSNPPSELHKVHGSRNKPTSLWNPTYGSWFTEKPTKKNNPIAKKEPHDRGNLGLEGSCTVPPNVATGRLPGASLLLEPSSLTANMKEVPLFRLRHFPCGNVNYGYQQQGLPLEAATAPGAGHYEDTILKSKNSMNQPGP
T6 sequence (Q8N568 whole entry): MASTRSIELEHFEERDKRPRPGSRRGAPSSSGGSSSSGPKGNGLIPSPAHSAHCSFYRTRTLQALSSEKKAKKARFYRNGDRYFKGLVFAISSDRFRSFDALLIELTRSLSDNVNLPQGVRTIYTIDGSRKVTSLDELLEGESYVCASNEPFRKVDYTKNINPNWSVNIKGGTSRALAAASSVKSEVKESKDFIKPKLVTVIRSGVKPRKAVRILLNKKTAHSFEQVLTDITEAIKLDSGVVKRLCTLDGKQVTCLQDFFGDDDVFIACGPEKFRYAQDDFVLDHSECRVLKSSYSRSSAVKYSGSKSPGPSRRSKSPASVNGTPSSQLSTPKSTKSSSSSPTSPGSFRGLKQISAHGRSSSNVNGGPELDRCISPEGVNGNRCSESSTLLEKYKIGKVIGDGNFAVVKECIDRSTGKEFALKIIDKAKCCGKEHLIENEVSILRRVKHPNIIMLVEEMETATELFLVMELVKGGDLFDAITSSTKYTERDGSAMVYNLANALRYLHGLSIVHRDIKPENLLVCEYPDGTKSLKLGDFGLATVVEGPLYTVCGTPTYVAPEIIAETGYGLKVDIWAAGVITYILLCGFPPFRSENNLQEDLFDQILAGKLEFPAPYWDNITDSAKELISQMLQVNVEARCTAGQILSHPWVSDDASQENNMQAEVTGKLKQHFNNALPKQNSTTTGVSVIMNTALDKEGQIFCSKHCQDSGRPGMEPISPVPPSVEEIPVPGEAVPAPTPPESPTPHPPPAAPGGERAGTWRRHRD
T2 sequence (O94921 whole entry): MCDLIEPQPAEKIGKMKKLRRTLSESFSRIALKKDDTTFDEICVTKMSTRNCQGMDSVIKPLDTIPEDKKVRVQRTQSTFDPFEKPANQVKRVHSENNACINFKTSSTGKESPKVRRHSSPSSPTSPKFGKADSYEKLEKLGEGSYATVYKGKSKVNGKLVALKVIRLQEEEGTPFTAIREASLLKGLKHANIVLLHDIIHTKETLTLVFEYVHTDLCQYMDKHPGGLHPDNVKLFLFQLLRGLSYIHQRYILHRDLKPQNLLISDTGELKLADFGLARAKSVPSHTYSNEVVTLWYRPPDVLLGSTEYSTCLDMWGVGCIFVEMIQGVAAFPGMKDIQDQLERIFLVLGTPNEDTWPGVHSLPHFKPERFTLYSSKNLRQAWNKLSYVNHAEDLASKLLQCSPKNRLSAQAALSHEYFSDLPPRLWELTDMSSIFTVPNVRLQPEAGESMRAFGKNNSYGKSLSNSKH
T8 sequence (P46734 whole entry): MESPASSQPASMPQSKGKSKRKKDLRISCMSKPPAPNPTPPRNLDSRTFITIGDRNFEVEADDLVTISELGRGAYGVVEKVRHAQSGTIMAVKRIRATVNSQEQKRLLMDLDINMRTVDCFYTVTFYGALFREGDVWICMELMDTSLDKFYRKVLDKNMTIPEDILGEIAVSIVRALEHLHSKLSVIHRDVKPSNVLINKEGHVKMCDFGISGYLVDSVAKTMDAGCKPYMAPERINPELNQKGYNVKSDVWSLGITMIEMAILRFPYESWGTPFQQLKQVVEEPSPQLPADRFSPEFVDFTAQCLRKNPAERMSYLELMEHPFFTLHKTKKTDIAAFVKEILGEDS

SMILES: Cc1cn(-c2cc(NC(=O)c3ccc4c(c3)CN(c3cncnc3)C[C@@H]4C)cc(C(F)(F)F)c2)cn1 [Compound 6j]
- remaining activity at 1 µM (MST4): 100%
- remaining activity at 1 µM [1]: 47%
- remaining activity at 1 µM (CSF1R): 96%
- remaining activity at 1 µM (PFTK1): 94%
- remaining activity at 1 µM (HPK1): 100%
- remaining activity at 1 µM (ALK): 95%
- remaining activity at 1 µM (PIP5K2C): 100%
- remaining activity at 1 µM (PLK3): 100%
- remaining activity at 1 µM (TGFBR1): 96%
- remaining activity at 1 µM (HIPK4): 87%
- remaining activity at 1 µM (SgK110): 98%
- remaining activity at 1 µM (MYLK4): 100%
- remaining activity at 1 µM (PRKD1): 95%
- remaining activity at 1 µM (CDKL5): 100%
- remaining activity at 1 µM (DCAMKL2): 100%
- remaining activity at 1 µM (CLK2): 86%
- remaining activity at 1 µM (CAMKK2): 72%
- remaining activity at 1 µM (KIT(A829P)): 100%
- remaining activity at 1 µM [2]: 92%
- remaining activity at 1 µM (GRK2): 96%
- remaining activity at 1 µM (DCAMKL1): 100%
- remaining activity at 1 µM (CSNK2A1): 100%
- remaining activity at 1 µM (PIK3CA(I800L)): 100%
- remaining activity at 1 µM (MEK3): 100%
- remaining activity at 1 µM (LRRK2(G2019S)): 100%
- remaining activity at 1 µM (KIT(D816H)): 100%
- remaining activity at 1 µM (STK39): 100%
- remaining activity at 1 µM (MET): 100%
- remaining activity at 1 µM (BRAF(V600E)): 100%
- remaining activity at 1 µM (MUSK): 31%
- remaining activity at 1 µM (CDK7): 80%
- remaining activity at 1 µM (INSRR): 100%
- remaining activity at 1 µM (PRP4): 100%
- remaining activity at 1 µM (NEK5): 95%
